Tested on: COLO320DM cells with lacO/lacR-GFP labelled DMs
Experiment: Microtubule inhibitor treatment of cells with lacO/lacR-GFP labelled DMs, immunofluorescence microscopy
Type: cell-based, human
Details: for appearance of microtubules (immunofluorescence): taxol 10 μM or vinblastine 10 μg/ml for 3 hours prior to harvesting, anti α-tubulin staining; for chromosome organization / association of DMs with chromosomes / peripheral localization of DMs on mitotic chromosomes: taxol 10 μM or vinblastine 10 μg/ml for 3 hours; for chromosome organization: DAPI counterstain; for association of DMs with chromosomes / peripheral localization of DMs on mitotic chromosomes: DMs visualized by lacR-GFP
From the text: Visualizing DM-integrated and free EBV vectors by in vivo lacR-GFP staining: One of the established cell lines, containing DMs tagged with lacO repeat, was infected with lacR-GFP retrovirus. The infected cells were subcloned by limited dilution to obtain sublines in which DMs are more uniformly labelled with lacR-GFP. For time lapse imaging, the same cell line was infected with H2B-CFP and lacR-YFP viruses simultaneously, and the double-labelled cells were subcloned by limited dilution.
Immunofluorescence staining: Cells were harvested by gentle pipetting, attached to slide glasses by cytospin (500 rpm, 1 minute, Shandon, Pittsburgh, Pa.), and fixed with 3.7% formaldehyde for 10 minutes. When indicated, cells were treated with either taxol (10 μM paclitaxel, Sigma Chemical Co., St. Louis, Mo.) or vinblastine (10 μg/ml, Sigma) for 3 hours prior to harvesting them in order to disrupt microtubules. Slides were washed with PBS three times, and treated with blocking buffer (2.5% BSA, 0.2M glycine, 0.1% TritonX-100) for 30 minutes.
Primary and secondary antibodies were diluted in the blocking buffer. Primary antibodies were rabbit anti EBNA-1 serum K67-3 (1:1000, kindly provided by Dr. Jaap Middeldorp, Free University Hospital, Amsterdam, the Netherlands), human CREST autoantiserum hACA-M (for detecting centromeres, 1:2000 dilution) (Sullivan et al., 1994), and monoclonal anti α-tubulin (for detecting microtubules, 1:2000 dilution, Sigma). Following incubation for 60 minutes at room temperature, glass slides were washed three times with PBS. Secondary antibodies were Texas-Red conjugated anti-rabbit IgG (1:500, Jackson ImmunoResearch, West Grove, Pa.), Cy5 conjugated goat anti-human IgG (1:1000, Amersham, Piscataway, N.J.), and rhodamine conjugated anti mouse IgG (1:1000, Boehringer Mannheim), respectively. Following incubation for 60 minutes at room temperature, slides were washed three times with PBS, and chromosomes were counterstained with DAPI (1 μg/ml). Fluorescence of lacR-GFP was preserved well by this protocol.
Microscopy: All images appearing in the Figures were collected using a DeltaVision microscope system (Applied Precision Inc. Issaquah, Wash.) with either a 63×/NA 1.4 or a 100×/NA 1.35 oil immersion objective. For fixed specimens (except for the images of FIG. 2), three-dimensional data sets were collected to visualize EBV vectors and DMs as they distributed in multiple focal planes. Optical sections were collected at 0.2-μm focal intervals; pixel size was 0.111 μm for 63× objective and 0.0669 μm for 100× objective. Out-of-focus contamination was removed from each optical section via deconvolution processing and two-dimensional images were created by projecting the three-dimensional data stacks using the software supplied with the DeltaVision system.
The ability to readily visualize DMs without using FISH protocol has enabled the investigation of the mechanisms that contribute to their behavior during mitosis. The possibility that DMs are held away from the spindle poles by the microtubule-mediated antipolar force, to which normal chromosome arms are also known to be subjected (Fuller, 1995; Rieder et al., 1986) was examined. DM-labelled cells were treated with either a microtubule stabilizer (taxol) or destabilizer (vinblastine). DMs and microtubules were visualized by lacR-GFP and immunofluorescence staining, respectively.

Structure (SMILES)	appearance of microtubules (immunofluorescence)	chromosome organization	association of DMs with chromosomes	peripheral localization of DMs on mitotic chromosomes
CC(=O)O[C@H]1C(=O)[C@@]2(C)[C@H]([C@H](OC(=O)c3ccccc3)[C@]3(O)C[C@H](OC(=O)[C@H](O)[C@@H](NC(=O)c4ccccc4)c4ccccc4)C(C)=C1C3(C)C)[C@]1(OC(C)=O)CO[C@@H]1C[C@@H]2O [taxol, paclitaxel]	multiple aster-like structures	completely disrupted	still associated closely with chromosomes	no longer attached to the periphery of clustered chromosomes
CC[C@]1(O)C[C@@H]2CN(CCc3c([nH]c4ccccc34)[C@@](C(=O)OC)(c3cc4c(cc3OC)N(C)[C@H]3[C@@](O)(C(=O)OC)[C@H](OC(C)=O)[C@]5(CC)C=CCN6CC[C@]43[C@@H]65)C2)C1 [vinblastine]	rod-like microtubules	completely disrupted	still associated closely with chromosomes	no longer attached to the periphery of clustered chromosomes
